Measured values published in patent US20230226066A1, “COMPOUNDS FOR THE TREATMENT OF VIRAL INFECTIONS” (MERCK PATENT GMBH, priority 2020, published 2023).

Experiments:
Assay type in all cases: cell-based
[1] = system: SARS-CoV2/ZG/297-20; conditions: MOI 0.05; 120 hours observation; Compound 1 at 1-81 μM, Compound 2 at 9-81 μM; compared to uninfected and infected control cells; FIGS. 1 and 2
[2] = Cytotoxic effect on Vero cells, assessed in parallel; conditions: African green monkey, FIG. 5, read-out: half maximal cytotoxic concentration (CC50), viability of Vero cells
Method: (§1) The antiviral effect of Compounds is evaluated against Dengue virus serotype 2 (DENV-2) using cytopathic effect (CPE) inhibition assay. Cytotoxic effect was assessed in parallel.
(§2) Five-fold serial dilutions of Compound 2 were prepared at a starting concentration of 50 μM and added in triplicate to 1.00E+04 Vero cells seeded in conical 96-well plates one day prior and incubated at 37° C. and 5% CO2 for one-hour. During the incubation time, viruses were thawed and inoculum prepared in infection medium. Stock and inoculum were maintained in wet ice at all time. Virus was then added to the Compound 2 dilutions/cells (1:1) and plates were incubated at 37° C. and 5% CO2 for 3-5 days.

[3] = system: Dengue virus serotype 2 (DENV-2); experiment: Antiviral testing against Dengue virus serotype 2 in Vero cells (CPE inhibition assay, immunostaining); conditions: DENV2, Vero, read-out: half maximal effective concentration (EC50), viral replication
Method: as §1, §2
Cells were immunostained. Then, medium was removed, cells were washed with PBS, fixed with cold 80%/20% (v/v) ethanol/methanol and incubated at −20° C. for 20 minutes. After removal of fixative the plates were air-dried, washed and stained with specific Ab #1, washed and stained with Ab #2-HRP conjugated. Then, cells were washed, 3,3′,5,5′-tetramethylbenzidine (TMB) substrate was added followed by addition of stop solution. The supernatant was transferred to a clean plate and signal read at 450 nm.

Compound	confluence of Calu-3 cells infected with SARS-CoV-2 [1]	CC50 [2]	EC50 [3]
Nc1nn2cc(F)cnc2c1C(=O)Nc1cncc(F)c1N1CCC(C(=O)N2CCN(C3COC3)CC2)CC1 [Compound 1, 2-Amino-6-fluoro-pyrazolo[1,5-a]pyrimidine-3-carboxylic acid [5′-fluoro-4-(4-oxetan-3-yl-piperazine-1-carbonyl)-3,4,5,6-tetrahydro-2H-[1,4′]bipyridinyl-3′-yl]-amide]	significant improvement of the confluence of the cells	–	–
Cn1cncc1-c1c(F)cncc1NC(=O)c1c(N)nn2cc(F)cnc12 [Compound 2, 2-Amino-6-fluoro-N-[5-fluoro-4-(1-methyl-1H-imidazol-5-yl)pyridin-3-yl]pyrazolo [1,5-a]pyrimidine-3-carboxamide]	significant improvement of the confluence of the cells	6.8 µM	0.46 µM
